The source of these data is patent US8399465B2, “Compounds with two fused bicyclic heteroaryl moieties as modulators of leukotriene A4 hydrolase” (Janssen Pharmaceutica NV, priority 2009, dated 2013).

Assay [1] concerns the target T1, recombinant human LTA4 hydrolase (rhLTA4H) (Homo sapiens, UniProt P09960).
T1 construct: made in house; host or cells: Spodoptera frugiperda (Sf-9) cells, baculovirus (pFastBac1)
T1 sequence (P09960 1-611): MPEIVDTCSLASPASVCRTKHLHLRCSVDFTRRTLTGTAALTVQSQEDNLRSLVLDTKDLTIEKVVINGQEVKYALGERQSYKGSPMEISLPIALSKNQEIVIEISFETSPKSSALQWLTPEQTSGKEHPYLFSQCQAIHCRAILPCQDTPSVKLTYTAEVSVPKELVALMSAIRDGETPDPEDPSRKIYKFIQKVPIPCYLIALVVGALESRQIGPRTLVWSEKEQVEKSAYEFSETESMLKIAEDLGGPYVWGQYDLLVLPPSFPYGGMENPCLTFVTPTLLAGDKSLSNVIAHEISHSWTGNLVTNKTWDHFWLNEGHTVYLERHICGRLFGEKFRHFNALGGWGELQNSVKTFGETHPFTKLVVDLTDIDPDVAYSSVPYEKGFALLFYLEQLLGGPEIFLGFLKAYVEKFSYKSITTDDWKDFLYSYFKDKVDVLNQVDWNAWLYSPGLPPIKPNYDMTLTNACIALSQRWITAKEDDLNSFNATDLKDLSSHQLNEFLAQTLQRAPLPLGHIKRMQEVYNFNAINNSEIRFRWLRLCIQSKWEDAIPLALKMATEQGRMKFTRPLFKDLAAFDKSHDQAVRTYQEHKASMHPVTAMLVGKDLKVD
Put plainly: Recombinant human LTA4 hydrolase assay for LTA4 hydrolase inhibitor activity. The class given is biochemical. To be noted: rhLTA4H, LTB4 by immunoassay; single determination or average of two or more; mark after value = form tested: ′ free base, ″ hydrochloride, ^ formate; read-out: IC50. The method, boiled down: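 LTB4 formation, measured by enzyme immunoassay, was the read-out. The enzyme, recombinant human LTA4H expressed in Sf-9 insect cells (10 ng per reaction), was exposed to compound for 10 min at room temperature before hydrolysed-ester LTA4 substrate was added for 30 min. Enzyme-free negatives were included.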

In assay [2] the test system is LTB4 production in murine blood (LTA4H). Put plainly: LTB4 production by calcium ionophore-stimulated murine blood for LTA4H inhibitor activity. The class given is cell-based, CD-1 mice. The conditions noted are these: Mus musculus; murine blood diluted 1 in 15, A23187 stimulated; single determination or average; mark after value = form tested: ′ free base, ″ hydrochloride, ^ formate; read-out: IC50. The method, boiled down:
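LTB4 was measured by ELISA in supernatants after calcium ionophore A23187 stimulation (final 7 μg/mL, 30 min, 37° C) of CD-1 mouse blood collected on heparin. Compound was preincubated with the blood for 15 min beforehand. Values come from one determination or average several.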

Assay [3] deals with arachidonic acid-induced neutrophil influx in murine ear tissue. Briefly: Murine arachidonic acid-induced inflammation model: neutrophil influx (myeloperoxidase) in ear. The class given is in vivo, Balb/c mice. The conditions noted are these: Mus musculus, read-out: % Inh. MPO.
Assay [4] deals with ex vivo calcium ionophore-stimulated LTB4 production in whole blood. Put plainly: Murine arachidonic acid-induced inflammation model: ex vivo stimulated LTB4 production in blood. To be noted: Mus musculus; 30 mg/kg oral gavage; blood diluted 1:1, A23187 stimulated ex vivo; percent inhibition of LTB4 production; read-out: % Inh. LTB4. Details: species or system Balb/c mice.
Where [5] appears, read: 30 mg/kg oral gavage, 60 min before topical arachidonic acid, ear biopsy after 3 h, percent inhibition of neutrophil influx.

pIC50: −log10 of the molar value. Where a name gives a salt, the structure may show the parent alone. Read-outs that look alike come from different tables or passages of the source.

The term pIC50 denotes −log10 of the IC50, conventionally taken in molar units. With `CCN(CC)Cc1cc2ccc(Oc3nc4ncccc4s3)cc2o1` [Example 198, Diethyl-[6-(thiazolo[4,5-b]pyridin-2-yloxy)-benzofuran-2-ylmethyl]-amine formate], the pIC50 is 7.96 in assay [1] and 6.96 in assay [2]. The figures for the inhibition at 30 mg/kg in assay [3] (Neutrophil) and in assay [4] were 74% and 80%, respectively.

Regarding `CC(=O)N1C[C@@H]2CC[C@H]1CN2Cc1cc2ccc(Oc3nc4ncccc4s3)cc2o1` [Example 170, meso-1-{5-[6-(Thiazolo[4,5-b]pyridin-2-yloxy)-benzofuran-2-ylmethyl]-2,5-diaza-bicyclo[2.2.2]oct-2-yl}-ethanone], the pIC50 was 8.30 in assay [1] and 7.10 in assay [2]. The inhibition at 30 mg/kg in assay [3] (setting [5]) was 70%; in assay [4], 76%.

Take `CC(=O)N(C)C1CCN(Cc2coc3cc(Oc4nc5ncccc5s4)ccc23)C1` (stereo not shown) [Example 309, N-Methyl-N-{1-[6-(thiazolo[4,5-b]pyridin-2-yloxy)-benzofuran-3-ylmethyl]-pyrrolidin-3-yl}-acetamide]: the pIC50 is 8.30 in assay [1] and 7.18 in assay [2]. The inhibition at 30 mg/kg turned out to be 81% in assay [3] (setting [5]) and 70% in assay [4].

As to `CC(=O)N1C[C@H]2C[C@@H]1CN2Cc1coc2cc(Oc3nc4ncccc4s3)ccc12` [Example 157, (1R,4R)-1-{5-[6-(Thiazolo[4,5-b]pyridin-2-yloxy)-benzofuran-3-ylmethyl]-2,5-diaza-bicyclo[2.2.1]hept-2-yl}-ethanone], the pIC50 in assay [1] was 8.10; in assay [2], 7.80. For the same compound, the inhibition at 30 mg/kg in assay [3] (setting [5]) amounted to 93%; in assay [4], 97%.

As to `CC(=O)N1CCC(N(Cc2coc3cc(Oc4nc5ncccc5s4)ccc23)C2CC2)CC1` [Example 238, 1-(4-{Cyclopropyl-[6-(thiazolo[4,5-b]pyridin-2-yloxy)-benzofuran-3-ylmethyl]-amino}-piperidin-1-yl)-ethanone], the pIC50 in assay [1] was 8.30; in assay [2], 7.36. Also, the inhibition at 30 mg/kg came out at 77% in assay [3] (setting [5]) and 93% in assay [4].

As to `CC(C)(C)C(=O)NC1CCN(Cc2cc3ccc(Oc4nc5ncccc5s4)cc3o2)C1` (stereo not shown) [Example 236, 2,2-Dimethyl-N-{1-[6-(thiazolo[4,5-b]pyridin-2-yloxy)-benzofuran-2-ylmethyl]-pyrrolidin-3-yl}-propionamide formate], the figures for the pIC50 in assay [1] and in assay [2] were 7.22 and 6.72, respectively. The inhibition at 30 mg/kg in assay [3] (Neutrophil) came to 34%; in assay [4], 39%.

For `CN(Cc1ccncc1)Cc1coc2cc(Oc3nc4ncccc4s3)ccc12` [Example 177, Methyl-pyridin-4-ylmethyl-[6-(thiazolo[4,5-b]pyridin-2-yloxy)-benzofuran-3-ylmethyl]-amine], the pIC50 in assay [1] was 7.89; in assay [2], 6.96. Besides, the inhibition at 30 mg/kg was found to be 12% in assay [3] (setting [5]) and 70% in assay [4].

Take `c1cnc2nc(Oc3ccc4c(CCN5CCOCC5)coc4c3)sc2c1` [Example 256, 2-[3-(2-Morpholin-4-yl-ethyl)-benzofuran-6-yloxy]-thiazolo[4,5-b]pyridine]: the values for the pIC50 in assay [1] and in assay [2] were 7.21 and 6.59, respectively. Further, the inhibition at 30 mg/kg worked out at 83% in assay [3] (setting [5]) and 68.4% in assay [4].

Take `CC(=O)N1CCN(Cc2coc3cc(Oc4nc5ncccc5s4)ccc23)CC1` [Example 196, 1-{4-[6-(Thiazolo[4,5-b]pyridin-2-yloxy)-benzofuran-3-ylmethyl]-piperazin-1-yl}-ethanone formate]: the values for the pIC50 in assay [1] and in assay [2] were 7.96 and 7.42, respectively. In addition, the inhibition at 30 mg/kg amounted to 93% in assay [3] (Neutrophil) and 91% in assay [4].

For `O=C(O)C1CCN(Cc2cc3ccc(Oc4nc5ccccc5s4)cc3o2)CC1` [Example 77, 1-[6-(Benzothiazol-2-yloxy)-benzofuran-2-ylmethyl]-piperidine-4-carboxylic acid], the pIC50 is 7.46 in assay [1] and 7.52 in assay [2]. The inhibition at 30 mg/kg in assay [3] (setting [5]) was 77%; in assay [4] it was 85%.

Consider `NC(=O)NC1CCN(Cc2coc3cc(Oc4nc5ncccc5s4)ccc23)CC1` [Example 240, {1-[6-(Thiazolo[4,5-b]pyridin-2-yloxy)-benzofuran-3-ylmethyl]-piperidin-4-yl}-urea], for which the figures for the pIC50 in assay [1] and in assay [2] were 8.30 and 7.15, respectively. For the same compound, the inhibition at 30 mg/kg in assay [3] (setting [5]) stood at 0%; in assay [4] it was 50%.

Take `NC(=O)C1CCN(Cc2cc3ccc(Oc4nc5ncccc5s4)cc3o2)CC1` [Example 116, 1-[6-(Thiazolo[4,5-b]pyridin-2-yloxy)-benzofuran-2-ylmethyl]-piperidine-4-carboxylic acid amide]: the pIC50 in assay [1] is 7.36; in assay [2] it was 7.26. Also, the values for the inhibition at 30 mg/kg in assay [3] (setting [5]) and in assay [4] were 66% and 76%, respectively.

`CC(=O)N[C@H]1C[C@H]2CC[C@@H](C1)N2C(=O)c1coc2cc(Oc3nc4ncccc4s3)ccc12` [Example 369, meso-endo-N-{8-[6-(Thiazolo[4,5-b]pyridin-2-yloxy)-benzofuran-3-carbonyl]-8-aza-bicyclo[3.2.1]oct-3-yl}-acetamide]: the pIC50 was 7.72 in assay [1] and 7.00 in assay [2]. Besides, the inhibition at 30 mg/kg is 76% in assay [3] (setting [5]) and 58% in assay [4].

Turning to `O=C1CCCN1C1CCN(Cc2coc3cc(Oc4nc5ncccc5s4)ccc23)CC1` [Example 215, 1-{1-[6-(Thiazolo[4,5-b]pyridin-2-yloxy)-benzofuran-3-ylmethyl]-piperidin-4-yl}-pyrrolidin-2-one], the pIC50 in assay [1] is 8.52; in assay [2], 7.68. The values for the inhibition at 30 mg/kg in assay [3] (setting [5]) and in assay [4] were 78% and 88%, respectively.

On to `c1cnc2sc(Oc3ccc4c(CN5CCOCC5)c[nH]c4c3)nc2n1` [Example 56, 2-(3-Morpholin-4-ylmethyl-1H-indol-6-yloxy)-thiazolo[4,5-b]pyrazine], for which the results for the pIC50 in assay [1] and in assay [2] were 7.09 and 6.54, respectively. In addition, the inhibition at 30 mg/kg in assay [3] (setting [5]) was 45%; in assay [4] it was 40%.

In the case of `CC(=O)N1C[C@H]2C[C@@H]1CN2Cc1cc2ccc(Oc3nc4ncccc4s3)cc2o1` [Example 107, (1R,4R)-1-{5-[6-(Thiazolo[4,5-b]pyridin-2-yloxy)-benzofuran-2-ylmethyl]-2,5-diaza-bicyclo[2.2.1]hept-2-yl}-ethanone], the pIC50 in assay [1] is 7.19; in assay [2] it was 6.56. For the same compound, the results for the inhibition at 30 mg/kg in assay [3] (setting [5]) and in assay [4] were 82% and 75%, respectively.

For `OCC1CCN(Cc2coc3cc(Oc4nc5ncccc5s4)ccc23)CC1` [Example 269, {1-[6-(Thiazolo[4,5-b]pyridin-2-yloxy)-benzofuran-3-ylmethyl]-piperidin-4-yl}-methanol], the pIC50 in assay [1] was 8.40; in assay [2], 7.92. Moreover, the inhibition at 30 mg/kg in assay [3] (setting [5]) was 92%; in assay [4], 74%.

Turning to `O=C1CCCN1C1CCN(Cc2cc3cc(Oc4nc5ncccc5s4)ccc3o2)CC1` [Example 96, 1-{1-[5-(Thiazolo[4,5-b]pyridin-2-yloxy)-benzofuran-2-ylmethyl]-piperidin-4-yl}-pyrrolidin-2-one], the pIC50 in assay [1] is 6.85; in assay [2], 6.96. Moreover, the results for the inhibition at 30 mg/kg in assay [3] (setting [5]) and in assay [4] were 53% and 66%, respectively.

For `CC(=O)N1CC2CN(Cc3coc4cc(Oc5nc6ncccc6s5)ccc34)CC2C1` (stereo not drawn) [Example 211, meso-1-{5-[6-(Thiazolo[4,5-b]pyridin-2-yloxy)-benzofuran-3-ylmethyl]-hexahydro-pyrrolo[3,4-c]pyrrol-2-yl}-ethanone], the pIC50 in assay [1] is 7.96; in assay [2] it was 7.89. Also, the inhibition at 30 mg/kg stood at 86% in assay [3] (setting [5]) and 92% in assay [4].
